Patent US4765972A (priority 1986, dated 1988)

How the values were obtained:
[1] = test system: calf brain macromolecular components; assay: Control irradiation of calf brain homogenate with ^3 H-vinblastine; format: binding; settings: standard photolabelling conditions; 50 nM ^3 H-vinblastine
Experimental: The standard photolabelling mixture used contained 50 nM ^3 H-NABV (50.6 Ci/mmol), 4% dimethylsulfoxide, […] potassium phosphate buffer, pH 7.0, and 2 mg/ml of tissue homogenate or high speed pellet or supernatant fractions in a final volume of 0.05 ml in polyvinylchloride V-microtiter wells (Dynatech Labs, Inc., Alexandria, VA) in a 25° C. water bath. Photolabelling mixtures were incubated for 15 minutes at 25° C. before photolysis. Photoactivation was performed for 10-20 minutes with a UV light equipped with two 15 W self-filtering 302 nm lamps (Model xx-15, Ultra-Violet Products, Inc., San Gabriel, CA), placed 3.4 cm above the photolabelling mixture. […] In a control experiment, brain homogenate was irradiated in the presence of 50 nM ^3 H-vinblastine (10.7 Ci/mmol; Amersham Corp., Arlington Heights, IL). Photoactivated samples were immediately processed for SDS-PAGE or frozen at -70° C.
When homogenate was incubated with ^3 H-NABV in the absence of UV light for 30 minutes, no radioactivity was found in subsequent SDS-PAGE gel slices above the ambient background level, except for excess 3H-NABV which migrated near the tracking dye front. Similar results were obtained after photoactivating ^3 H-NABV in the absence of brain homogenate which was then added prior to performing SDS-PAGE and gel slice analysis.

[2] = test system: P388 murine leukemic cells; assay: Growth inhibition of exponentially growing P388 cells; format: cell-based; settings: Mus musculus, P388, 72 h
Description: Thus, NABV is ideal for probing intracellular Vinca alkaloid interactions because it retains the known biochemical and pharmacological properties of this class of drugs.

[3] = test system: P388 leukemic cells; assay: Ultrastructural alterations in P388 cells; format: cell-based, murine
[4] = test system: MCF-7 human breast tumor cells; assay: Ultrastructural alterations in MCF-7 cells; format: cell-based
[5] = test system: microtubule; assay: In vitro microtubule assembly; format: biochemical; settings: both drugs at similar concentrations
[6] = test system: tubulin; assay: Tubulin aggregation; format: biochemical; settings: both drugs at similar concentrations
[7] = test system: tubulin; assay: Tubulin-dependent GTP hydrolysis; format: biochemical; settings: both drugs at similar concentrations

Structure (SMILES): CC[C@]1(O)C[C@@H]2CN(CCc3c([nH]c4ccccc34)[C@@](C(=O)OC)(c3cc4c(cc3OC)N(C)[C@H]3[C@@](O)(C(=O)OC)[C@H](OC(C)=O)[C@]5(CC)C=CCN6CC[C@]43[C@@H]65)C2)C1 [^3 H-vinblastine]
- radiolabel incorporation into calf brain macromolecular components [1]: no radiolabel incorporation

Structure (SMILES): CCC1(O)CC2CN(CCc3c([nH]c4ccccc34)C(C(=O)OC)(c3cc4c(cc3OC)N(C)C3C(O)(C(=O)NCCNC(=O)c5ccc(N=[N+]=[N-])cc5)C(O)C5(CC)C=CCN6CCC43C65)C2)C1 (stereo not drawn) [NABV, N-(p-azidobenzoyl)-N'-beta-aminoethylvindesine]
- IC50 [2]: 1.1 nM
- ultrastructural alterations (microtubular paracrystals, mitotic arrest, multinucleated cells) [3]: resembles those caused by vinblastine
- ultrastructural alterations (microtubular paracrystals, mitotic arrest, multinucleated cells) [4]: resembles those caused by vinblastine
- effect on in vitro microtubule assembly [5]: inhibit in vitro microtubule assembly
- effect on tubulin aggregation [6]: induce tubulin aggregation
- effect on tubulin-dependent GTP hydrolysis [7]: inhibit tubulin-dependent GTP hydrolysis
